US20110224221A1, “HEMATOPOIETIC PROTECTION AGAINST IONIZING RADIATION USING SELECTIVE CYCLIN-DEPENDENT KINASE 4/6 INHIBITORS” (priority 2008, published 2011)
“Also recorded” adds a separate entry of the source.

Columns and labels:
[1] = tested on: telomerized human diploid fibroblasts; assay: Comet tail assay after IR; format: cell-based; settings: 24 hours treatment prior to IR, 0-8 Gy
Experimental: Telomerized human diploid fibroblasts were irradiated and then immobilized. After immobilization, cell nuclei were exposed to an electric field by gel electrophoresis, with fragmented DNA migrating further than undamaged DNA.
Comet tail assay: Cells were seeded and allowed to adhere overnight in a 6 cm culture dish. Cells were then treated for 24 hours with a CDK4/6 inihibitor or dimethyl sulfoxide (DMSO) only. After 24 hours cells were irradiated as described. Cells were then fixed and treated as described in manufacturer instructions for the COMETASSAY™ purchased from Trevigen (Gaithersburg, Md., United States of America). In summary, cells were embedded in agarose, the membranes are permeabilized, DNA is denatured in alkali solution, and the DNA is mobilized using gel electrophoresis. Images of the comet tails were obtained by fluorescent microscopy (see Microscopy) and images were analyzed using CometScore software from TriTek Corp. (Sumerduck, Va., United States of America) at either 10× or 20× magnification.

[2] = tested on: tHDF (HS68) cells; assay: Clonogenic assay after IR, tHDF (HS68); format: cell-based, human; settings: PD0332991 100 nM, 2BrIC 2 μM, CINK4 6 μM, IR 0-9 Gy
Experimental: FIG. 6A is a set of micrograph images of crystal violet stained cell cultures of cyclin-dependent kinase 4/6 (CDK4/6)-dependent cells (HS68) plated at different cell/well ratios and treated with either dimethyl sulfoxide (DMSO) as a negative control or with the selective CDK4/6 inhibitor 2-bromo-12,13-dihydro-5H-indolo[2,3-a]pyrrolo[3,4]carbazole-5,6-dione (2BrIC) at 2 μM for 24 hours prior to exposure to ionizing radiation at 0, 1.5, 3, 6, or 9 gray (Gy), as indicated.
Data plotted is the area/cell ratio of PD0332991 treated cells to dimethyl sulfoxide (DMSO) treated cells. Error bars show standard error of the mean.
FIG. 9A is a set of micrograph images of cell cultures of cyclin-dependent kinase 4/6 (CDK4/6)-dependent cells (HS68) plated at different cell/well ratios and pretreated with either dimethyl sulfoxide (DMSO) as a control or with the nonselective CDK4/6 inhibitor trans-4-[[6-ethylamino)-2-[[1-phenylmethyl)-1H-indol-5-yl]amino]-4-pyrimidinyl]amino]]-cyclohexanol (CINK4) at 6 μM for 24 hours prior to exposure to ionizing radiation at 0, 1.5, 3, 6, or 9 gray (Gy), as indicated. The plates were stained with crystal violet to visualize cell colonies.
Clonogenic Assay: The clonogenic assay was performed as previously described (see Franken et al., Nature protocols, 1, 2315-1319 (2006)) with cells plated in a six-well plate at least 6 hours prior to treatment with CDK inhibitor for 24 hours, with 6 Gy IR occurring 12 hours after initiation of CDK inhibitor exposure. Cells were grown for 16 days, washed, fixed, and stained with crystal violet. Plates were then imaged using an Odyssey infrared scanner (Li-Cor Biosciences, Lincoln, Nebr., United States of America) and quantified using the accompanying software.

[3] = tested on: tHDF cells; assay: γH2AX after IR; format: cell-based, human; settings: 24 hours prior to IR; PD0332991 100 nM (6 Gy), 2BrIC 2 μM (0-8 Gy)
Description: FIG. 5A is a set of grayscale 40× images of phospho-γH2AX foci (nuclear) and phalloidin staining (cytoplasmic) of telomerized human diploid fibroblasts (tHDF) with (bottom row) and without (top row) 6 Gy ionizing radiation (IR). […] Scale bar=50 μm.
N=139 or greater for each condition; box=middle 50%, whiskers=0-25% and 75-100%. Significance determined by Kruskal-Wallis with Dunn post-hoc test for pairwise comparisons (*** p<0.0001).
FIG. 5F is a set of representative phospho-γH2AX (x-axis) dot plots after 0, 2, 4, 6, or 8 gray (Gy) of ionizing radiation with (right-hand column) or without (left-hand column) treatment with the selective cyclin-dependent kinase 4/6 (CDK4/6) inhibitor 2-bromo-12,13-dihydro-5H-indolo[2,3-a]pyrrolo[3,4]carbazole-5,6-dione (2BrIC) at 2 μM for 24 hours prior to exposure to ionizing radiation (IR). Cells that were not treated with 2BrIC were instead treated with vehicle (dimethyl sulfoxide (DMSO)) only. An increased fraction of phospho-γH2AX (x-axis) expressing cells is noted with increased doses of IR in DMSO treated cells.
γH2AX after IR: For γH2AX images, tHDF received 6 Gy IR with or without 24 hours of prior exposure to a CDK inhibitor. […] Images were analyzed for mean nuclear intensities were computed in ImageJ software (developed by the National Institutes of Health, Bethesda, Md., United States of America). […]

[4] = tested on: TyrRAS+Ink4a/Arf−/− melanoma; assay: Tumor-bearing mice given 7.5 Gy TBI: tumor growth and mortality; format: in vivo
Experimental: Tumor growth with (open squares) or without (closed diamonds) a single dose of 6-acetyl-8-cyclopentyl-5-methyl-2-(5-piperazin-1-yl-pyridin-2-ylamino)-8H-pyrido-[2,3-d]-pyrimidin-7-one (PD0332991) administered 4 hours prior to 7.5 gray (Gy) total body irradiation (TBI). […] Error bars indicate standard error of the mean.
FIG. 2E is a set of Kaplan-Meyer survival curves showing overall mortality, tumor-specific mortality and mortality to radiation toxicity of tumor bearing mice treated with 7.5 gray (Gy) of total body irradiation (TBI) with (solid line, n=8) or without (dashed line n=11) 6-acetyl-8-cyclopentyl-5-methyl-2-(5-piperazin-1-yl-pyridin-2-ylamino)-8H-pyrido-[2,3-d]-pyrimidin-7-one (PD 0332991) treatment 4 hours prior to ionizing radiation (IR). P-values calculated using the log-rank test.
Young adult (6-12 weeks of age), virgin female C57B1/6 mice were purchased from Jackson Labs (Bar Harbor, Me., United States of America). […] Experiments on tumor-bearing TyrRAS+Ink4a/Arf−/− mice (see Chin et al., Genes & development, 11, 2822-2834 (1997)) were performed in animals fully backcrossed (N>10) to the FVB/n background. Mice were treated as previously described (see Ramsey et al., Cancer Res., 67, 4732-4741 (2007)) with PD 0332991 obtained from Pfizer Inc., (New York, N.Y., United States of America) given by oral gavage at a dose of 150 mg/kg body weight. TyrRAS+Ink4a/Arf−/− mice were serially observed until tumor development. When tumors were about 0.2 cm^2 in size, daily PD 0332991 treatment was begun. […] Tumor-bearing mice were euthanized at the indicated times for morbidity, tumor ulceration, or tumor size >1.5 cm in diameter.
For TBI experiments, mice were irradiated using a ^137Cs source (AECL Gammacell 40 Irradiator, Atomic Energy of Canada Ltd, Mississauga, Ontario, Canada). Delivered doses were at or near the empirically determined LD90 of 7.5 Gy, consistent with prior studies.

[5] = treatment 4 hours prior to 7.5 Gy TBI

SMILES	DNA damage (comet tails) after IR [1]	clonogenic cell survival after IR (area/cell ratio relative to DMSO) [2]	γH2AX formation after IR [3]	anti-tumor effect of therapeutic IR ([4]; single dose 4 hours prior to 7.5 Gy TBI)	mortality to radiation toxicity [4, 5]	tumor-related mortality [4, 5]
O=C1NC(=O)c2c1c1c3ccccc3[nH]c1c1[nH]c3cc(Br)ccc3c21 [Compound 2BrIC, 2-bromo-12,13-dihydro-5H-indolo[2,3-a]pyrrolo[3,4]-carbazole-5,6-dione]	attenuated; also recorded: potently reduce comet tail formation	enhanced clonogenic cell survival	attenuated; also recorded: potently decreases IR-induced DNA damage; also recorded: decreases the induction of phospho-γH2AX expression	–	–	–
CC(=O)c1c(C)c2cnc(Nc3ccc(N4CCNCC4)cn3)nc2n(C2CCCC2)c1=O [PD0332991, 6-acetyl-8-cyclopentyl-5-methyl-2-(5-piperazin-1-yl-pyridin-2-ylamino)-8H-pyrido-[2,3-d]-pyrimidin-7-one]	greatly attenuated; also recorded: potently reduce comet tail formation	enhanced clonogenic cell survival	attenuated	does not decrease that anti-tumor effect of therapeutic radiotherapy	does appear to provide protection from radiation toxicity	does not appear to increase tumor-related mortality
